Experiments:
[1] = Anti-obesity test (body weight, food consumption); assay type: in vivo, mouse (male A/J); settings: Table 14; DHEA = 1×
Method: Male A/J mice (5 weeks old) were obtained from the Jackson Laboratory and were housed in polycarbonate cages (5 mice/cage) in animal quarters maintained at 24°±1° C. with 12 hours of light and 12 hours of darkness each day. One week after arrival, the mice were placed on a chow diet containing varying concentrations of DHEA or other steroid. Animals were weighed weekly; food consumption was determined weekly by subtracting the amount of food remaining in the cage from the amount added.
Male A/J (5 weeks old) were obtained from the Jackson Laboratory and were housed in polycarbonate cages (5 mice/cage) in animal quarters maintained at 24°±1° C. with 12 hours of light and 12 hours of darkness each day. One week after arrival, the mice were placed on a diet containing either DHEA, 19, or without steroid. Animals were weighed weekly. The concentration of DHEA or 19 used in the food was 0.54%.
Male A/J mice (5 weeks old) were obtained from the Jackson Laboratory and were housed in polycarbonate cages (5 mice/cage) in animal quarters maintained at 24°±1° C. with 12 hours of light and 12 hours of darkness each day. One week after arrival, the mice were placed on a show diet containing DHEA, 16, or 21 at 0.36%. Animals were weighed weekly.

[2] = molecular target: T1, purified bovine adrenal G6PDH (Bos taurus, UniProt F1MMK2); experiment: Inhibition of purified bovine adrenal G6PDH; assay type: biochemical; settings: for inhibition at 10 µM / inhibition at 1 µM / inhibition at 0.1 µM: read-out: Percent Inhibition (G6PDH); for G6PDH Inhibition relative to DHEA: Table 3, DHEA = 1×
T1 construct: full-length, wild type, no tag
T1 sequence (F1MMK2 31-70): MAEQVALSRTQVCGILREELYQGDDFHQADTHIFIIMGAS
T1 sequence (F1MMK2 101-575): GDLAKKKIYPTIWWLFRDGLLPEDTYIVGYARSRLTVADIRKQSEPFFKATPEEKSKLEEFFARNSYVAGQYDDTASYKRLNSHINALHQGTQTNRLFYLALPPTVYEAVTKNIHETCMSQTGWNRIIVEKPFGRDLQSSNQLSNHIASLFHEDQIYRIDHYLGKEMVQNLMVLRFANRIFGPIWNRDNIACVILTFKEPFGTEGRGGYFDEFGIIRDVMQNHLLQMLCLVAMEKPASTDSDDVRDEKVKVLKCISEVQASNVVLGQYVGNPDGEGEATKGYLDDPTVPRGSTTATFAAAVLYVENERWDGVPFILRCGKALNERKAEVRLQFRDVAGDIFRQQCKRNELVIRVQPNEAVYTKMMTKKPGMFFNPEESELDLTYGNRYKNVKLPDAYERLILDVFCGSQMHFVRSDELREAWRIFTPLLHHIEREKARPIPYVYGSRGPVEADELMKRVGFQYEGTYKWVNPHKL
Excerpt: The compounds listed below are screened as inhibitors of purified bovine adrenal G6PDH activity as one predictor of cancer preventive action. The assay for testing the inhibition of purified bovine adrenal G6PDH is according to the procedure by Oertel, G. W. and Rebelein, I. in Biochem. Biophys. Acta, 184, 459-460 (1969). The results are given below in Table I:
Both of the above tests, i.e., the inhibition of mammalian glucose-6-phosphate dehydrogenase (G6PDH) and the inhibition of tumor promoter (TPA) stimulation of ^3 H-thymidine incorporation in mouse epidermis are recognized as indicators of cancer prophylactic activity. The following Table compares the efficacy of representative compounds of the present invention in these two tests with that of DHEA: […]

[3] = system: TPA (Tumor Promoter) Stimulation of Mouse Epidermal DNA; experiment: Inhibition of TPA stimulation of mouse epidermal DNA synthesis (3H-thymidine incorporation), oral; assay type: in vivo, mouse (ICR male); settings: Table 3; DHEA = 1×; oral
Excerpt: Synthesis rate by orally administered steroids.
The inhibition of tumor promoter stimulation of mouse epidermal DNA synthesis rate by steroids may also contribute to cancer preventive activity. The following assay is used:
ICR male mice (7-9 weeks old) were shaved on the back 1-2 days before use. Only mice showing no hair regrowth were used. Animals were orally intubated with a particular steroid suspended by homogenization in sesame oil or with sesame oil alone (controls). One hour later TPA (10 μg in 0.2 ml of acetone) or acetone vehicle was applied topically to the shaved skin. Twenty hours later, mice were injected i.p. with 60 μCi of ^3 H-thymidine 20 minutes before sacrifice. The animals were killed by cervical dislocation and the residual hair was removed with a depilatory agent. Epidermal scrapings were prepared according to the procedures of Hennings et al. (Cancer Res. 28, 53, 1968), homogenized in distilled water at 4° C., and the macromolecules precipitated with 0.4N trichloroacetic acid (TCA). Following 6 washes with absolute ethanol at room temperature, the nucleic acids were hydrolyzed with 0.5N TCA at 70° C. for 5 minutes. The hydrolysate (0.2 ml aliquots) were counted in an Intertechnique scintillation counter and assayed for DNA by the diphenylamine reaction.
The data are expressed as counts per minute (cpm) of tritium per μg of DNA.
A similar oral dose-response experiment with compound 16 and DHEA was performed.
Both of the above tests, i.e., the inhibition of mammalian glucose-6-phosphate dehydrogenase (G6PDH) and the inhibition of tumor promoter (TPA) stimulation of ^3 H-thymidine incorporation in mouse epidermis are recognized as indicators of cancer prophylactic activity. The following Table compares the efficacy of representative compounds of the present invention in these two tests with that of DHEA:
(§1) Male ICR mice were orally intubated with steroid suspended in sesame oil (0.5 ml/mouse) at the indicated dose. Mice not receiving steroid were given sesame oil alone. One hour later mice received topical application of TPA and 20 hours later the rate of ^3 H-thymidine incorporation into the epidermis was determined as described in Table 4.
as §1, with “TPA,” for “TPA”

C57BL/KsJ-db/db mice = experiment: Anti-hyperglycemic activity (blood glucose); assay type: in vivo, mouse (C57BL/KsJ-db/db); settings: Table 15; DHEA = 1×
Method: C57BL/KsJ-db/db 8 week old female mice were obtained and housed in polycarbonate cages in animal quarters maintained at 24° C. with 12 h of light and 12 h of darkness each day.
Mice were placed on a control chow or a chow diet containing either 0.4% DHEA or 0.2% of compound 16.
For determination of blood glucose levels, mice were bled from the orbital sinus using a heparinized capillary tube. 0.2 ml of blood was added to 1.8 ml of water to hemolyze the blood and glucose concentration was determined using the glucose oxidase assay.

CC[C@H]1CC[C@@]2(C)C(=CC[C@@H]3[C@@H]2CC[C@]2(C)C(=O)CC[C@@H]32)C1 [drawing 101]
Anti-obesity Activity relative to DHEA [1]: ~ 0.5 ×

C[C@H]1CC[C@@]2(C)C(=CC[C@@H]3[C@@H]2CC[C@]2(C)C(=O)[C@H](C)C[C@@H]32)C1 [drawing 99]
Anti-obesity Activity relative to DHEA [1]: ~ 1 ×

C[C@]12CC[C@H](O)C[C@@H]1CC[C@@H]1[C@@H]2CC[C@]2(C)C(=O)[C@H](I)C[C@@H]12 [Compound 7]
inhibition at 10 µM ([2]; Conc. 10 μm): 51%

C[C@]12CC[C@H](Cl)CC1=CC[C@@H]1[C@@H]2CC[C@]2(C)C(=O)CC[C@@H]12 [drawing 90]
G6PDH Inhibition relative to DHEA [2]: 0.5 × | Inhibition of TPA Effect on Epidermis Following Oral Administration, relative to DHEA [3]: 1-1.5 ×

C[C@H]1CC[C@@]2(C)C(=CC[C@@H]3[C@@H]2CC[C@]2(C)C(=O)[C@](C)(F)C[C@@H]32)C1 [Compound 22]
inhibition at 1 µM ([2]; Conc. 1 μm): 53% | inhibition at 10 µM ([2]; Conc. 10 μm): 65%

CC1=C2C[C@@H](O)CC[C@]2(C)[C@H]2CC[C@]3(C)C(=O)CC[C@H]3[C@@H]2C1 [Compound 18]
inhibition at 0.1 µM ([2]; Conc. 0.1 μm): 10% | inhibition at 1 µM ([2]; Conc. 1 μm): 18% | inhibition at 10 µM ([2]; Conc. 10 μm): 45%

CC[C@H]1CC[C@@]2(C)C(=CC[C@@H]3[C@@H]2CC[C@]2(C)C(=O)CC[C@@H]32)C1 [drawing 91]
G6PDH Inhibition relative to DHEA [2]: ~ 1.5 ×

C[C@H]1CC[C@@]2(C)C(=CC[C@@H]3[C@@H]2CC[C@]2(C)C(=O)[C@H](F)C[C@@H]32)C1 [drawing 94]
G6PDH Inhibition relative to DHEA [2]: 5-10 × | Inhibition of TPA Effect on Epidermis Following Oral Administration, relative to DHEA [3]: > 10 ×

C[C@]12CC[C@H](O)C[C@@H]1CC[C@@H]1[C@@H]2CC[C@]2(C)C(=O)[C@H](F)C[C@@H]12 [Compound 8]
inhibition at 10 µM ([2]; Conc. 10 μm): 66%

C[C@@H]1[C@H](O)CC[C@@]2(C)[C@H]1CC[C@@H]1[C@@H]2CC[C@]2(C)C(=O)CC[C@@H]12 [Compound 11]
inhibition at 10 µM ([2]; Conc. 10 μm): 35%

C[C@]12CC[C@H](O)C[C@@H]1CC[C@@H]1[C@@H]2CC[C@]2(C)C(=O)CC[C@@H]12 [drawing 95]
Anti-obesity Activity relative to DHEA [1]: ~ 0.5 ×

C[C@H]1CC[C@@]2(C)C(=CC[C@@H]3[C@@H]2CC[C@]2(C)C(=O)[C@H](O)C[C@@H]32)C1 [drawing 89]
G6PDH Inhibition relative to DHEA [2]: ~ 2 × | Inhibition of TPA Effect on Epidermis Following Oral Administration, relative to DHEA [3]: 5 ×

C[C@]12CC[C@H](O)C[C@@H]1CC[C@@H]1[C@@H]2CC[C@]2(C)C(=O)[C@H](Br)C[C@@H]12 [Compound 4]
inhibition at 10 µM ([2]; Conc. 10 μm): 90%

CC1(C)C2=CC[C@@H]3[C@H](CC[C@]4(C)C(=O)CC[C@@H]34)[C@@]2(C)CC[C@@H]1O [Compound 12]
inhibition at 10 µM ([2]; Conc. 10 μm): 48%

C[C@]12CCCC[C@@H]1CC[C@@H]1[C@@H]2CC[C@]2(C)C(=O)CC[C@@H]12 [drawing 96]
Anti-obesity Activity relative to DHEA [1]: ~ 0.5 ×

C[C@]12CC[C@H](O)C[C@@H]1CC[C@@H]1[C@@H]2CC[C@]2(C)C(=O)CC[C@@H]12 [drawing 85]
G6PDH Inhibition relative to DHEA [2]: ~ 1.5 × | Inhibition of TPA Effect on Epidermis Following Oral Administration, relative to DHEA [3]: ~ 1 ×

C[C@H]1CC[C@@]2(C)C(=CC[C@@H]3[C@@H]2CC[C@]2(C)C(=O)CC[C@@H]32)C1 [drawing 97]
Anti-obesity Activity relative to DHEA [1]: ~ 3 ×

CCCC[C@H]1CC[C@@]2(C)C(=CC[C@@H]3[C@@H]2CC[C@]2(C)C(=O)CC[C@@H]32)C1 [Compound 17]
inhibition at 0.1 µM ([2]; Conc. 0.1 μm): 49% | inhibition at 1 µM ([2]; Conc. 1 μm): 45% | inhibition at 10 µM ([2]; Conc. 10 μm): 60%

C[C@H]1CC[C@@]2(C)C(=CC[C@@H]3[C@@H]2CC[C@]2(C)C(=O)[C@H](C)C[C@@H]32)C1 [drawing 88]
G6PDH Inhibition relative to DHEA [2]: ~ 0.5 ×

C[C@H]1CC[C@@]2(C)C(=CC[C@@H]3[C@@H]2CC[C@]2(C)C(=O)CC[C@@H]32)C1 [drawing 102]
Anti-diabetic Activity relative to DHEA (C57BL/KsJ-db/db mice): 3 ×

C[C@]12CC[C@H](O)CC1=CC[C@@H]1[C@@H]2CC[C@]2(C)C(=O)[C@H](Br)C[C@@H]12 [Compound 5]
inhibition at 10 µM ([2]; Conc. 10 μm): 74%

C[C@@H]1C[C@@]2(C)C(=CC[C@@H]3[C@@H]2CC[C@]2(C)C(=O)CC[C@@H]32)C[C@H]1O
G6PDH Inhibition relative to DHEA [2]: ~ 1 ×

C[C@]12CC[C@H](F)CC1=CC[C@@H]1[C@@H]2CC[C@]2(C)C(=O)CC[C@@H]12 [Compound 9]
inhibition at 10 µM ([2]; Conc. 10 μm): 22%

C[C@]12CCCC[C@@H]1CC[C@@H]1[C@@H]2CC[C@]2(C)C(=O)CC[C@@H]12 [drawing 86]
G6PDH Inhibition relative to DHEA [2]: > 2 × | Inhibition of TPA Effect on Epidermis Following Oral Administration, relative to DHEA [3]: ~ 1.5 ×

C[C@]12CC[C@H](Cl)CC1=CC[C@@H]1[C@@H]2CC[C@]2(C)C(=O)CC[C@@H]12 [drawing 100]
Anti-obesity Activity relative to DHEA [1]: ~ 1 ×

C[C@]12CCCCC1=CC[C@@H]1[C@@H]2CC[C@]2(C)C(=O)CC[C@@H]12 [Compound 14]
inhibition at 1 µM ([2]; Conc. 1 μm): 30% | inhibition at 10 µM ([2]; Conc. 10 μm): 75%

C[C@]12CC[C@H](O)C[C@@H]1CC[C@@H]1[C@@H]2CC[C@]2(C)C(=O)[C@H](Cl)C[C@@H]12 [Compound 6]
inhibition at 10 µM ([2]; Conc. 10 μm): 72%

C[C@]12CC[C@H](Cl)CC1=CC[C@@H]1[C@@H]2CC[C@]2(C)C(=O)CC[C@@H]12 [drawing 103]
Anti-diabetic Activity relative to DHEA (C57BL/KsJ-db/db mice): 1 ×

C[C@H]1C2=CC[C@@H]3[C@H](CC[C@]4(C)C(=O)CC[C@@H]34)[C@@]2(C)CC[C@@H]1O [Compound 11a]
inhibition at 1 µM ([2]; Conc. 1 μm): 72% | inhibition at 10 µM ([2]; Conc. 10 μm): 87%

C[C@]12CC[C@@H](O)C[C@@H]1CC[C@@H]1[C@@H]2CC[C@]2(C)C(=O)CC[C@@H]12 [Compound 10]
inhibition at 10 µM ([2]; Conc. 10 μm): 35%

CCCC[C@H]1CC[C@@]2(C)C(=CC[C@@H]3[C@@H]2CC[C@]2(C)C(=O)CC[C@@H]32)C1 [drawing 92]
G6PDH Inhibition relative to DHEA [2]: ~ 2 ×

C[C@H]1CC[C@@]2(C)C(=CC[C@@H]3[C@@H]2CC[C@]2(C)C(=O)CC[C@@H]32)C1 [drawing 87]
G6PDH Inhibition relative to DHEA [2]: ~ 1 × | Inhibition of TPA Effect on Epidermis Following Oral Administration, relative to DHEA [3]: ~ 3 ×

CC[C@H]1CC[C@@]2(C)C(=CC[C@@H]3[C@@H]2CC[C@]2(C)C(=O)CC[C@@H]32)C1 [Compound 13]
inhibition at 0.1 µM ([2]; Conc. 0.1 μm): 58% | inhibition at 1 µM ([2]; Conc. 1 μm): 55% | inhibition at 10 µM ([2]; Conc. 10 μm): 73%

Androst-5-en-17-one [Compound 15, reference compound]
Percent Inhibition (G6PDH) ([2]; Conc. 0.1 μm): 26% | Percent Inhibition (G6PDH) ([2]; Conc. 1 μm): 40% | Percent Inhibition (G6PDH) ([2]; Conc. 10 μm): 46%

C[C@H]1CC[C@@]2(C)C(=CC[C@@H]3[C@@H]2CC[C@]2(C)C(=O)[C@H](O)C[C@@H]32)C1 [drawing 98]
Anti-obesity Activity relative to DHEA [1]: ~ 0.8 ×
